Data taken from the supplement of paper PMC11451515.

Tested on: P12-Ichikawa
Assay: cell viability relative to DMSO control; higher = less cytotoxic
Settings: 48 h
In short: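 NOMO1, SEM and P12-Ichikawa leukemia cells spent at least four passages adapting to each medium before use. They were seeded at 500 cells/well (NOMO1, SEM) or 1000 cells/well (P12-Ichikawa) in 5 μl in 1536-well plates and pin-dosed with library compounds in DMSO at 11 threefold steps from 47 μM down to 0.79 nM. After 48 h at 37°C, CellTiter-Glo One luminescence was read. Viability is reported as a percentage of the DMSO wells on each plate, with cell-free wells as background.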

[1] = HPLM + 10% dialyzed FBS, 0.000781 µM
[2] = HPLM + 10% dialyzed FBS, 0.00234 µM
[3] = HPLM + 10% dialyzed FBS, 0.00702 µM
[4] = HPLM + 10% dialyzed FBS, 0.0211 µM
[5] = HPLM + 10% dialyzed FBS, 0.0632 µM
[6] = HPLM + 10% dialyzed FBS, 0.19 µM
[7] = HPLM + 10% dialyzed FBS, 0.569 µM
[8] = HPLM + 10% dialyzed FBS, 1.71 µM
[9] = HPLM + 10% dialyzed FBS, 5.12 µM
[10] = HPLM + 10% dialyzed FBS, 15.4 µM
[11] = HPLM + 10% dialyzed FBS, 46.1 µM
[12] = RPMI 5 mM glucose + 10% FBS, 0.000781 µM
[13] = RPMI 5 mM glucose + 10% FBS, 0.00234 µM
[14] = RPMI 5 mM glucose + 10% FBS, 0.00702 µM
[15] = RPMI 5 mM glucose + 10% FBS, 0.0211 µM
[16] = RPMI 5 mM glucose + 10% FBS, 0.0632 µM
[17] = RPMI 5 mM glucose + 10% FBS, 0.19 µM
[18] = RPMI 5 mM glucose + 10% FBS, 0.569 µM
[19] = RPMI 5 mM glucose + 10% FBS, 1.71 µM
[20] = RPMI 5 mM glucose + 10% FBS, 5.12 µM
[21] = RPMI 5 mM glucose + 10% FBS, 15.4 µM
[22] = RPMI 5 mM glucose + 10% FBS, 46.1 µM
[23] = RPMI 5 mM glucose + 10% dialyzed FBS, 0.000781 µM
[24] = RPMI 5 mM glucose + 10% dialyzed FBS, 0.00234 µM
[25] = RPMI 5 mM glucose + 10% dialyzed FBS, 0.00702 µM
[26] = RPMI 5 mM glucose + 10% dialyzed FBS, 0.0211 µM
[27] = RPMI 5 mM glucose + 10% dialyzed FBS, 0.0632 µM
[28] = RPMI 5 mM glucose + 10% dialyzed FBS, 0.19 µM
[29] = RPMI 5 mM glucose + 10% dialyzed FBS, 0.569 µM
[30] = RPMI 5 mM glucose + 10% dialyzed FBS, 1.71 µM
[31] = RPMI 5 mM glucose + 10% dialyzed FBS, 5.12 µM
[32] = RPMI 5 mM glucose + 10% dialyzed FBS, 15.4 µM
[33] = RPMI 5 mM glucose + 10% dialyzed FBS, 46.1 µM

| SMILES | cell viability [1] [%] | cell viability [2] [%] | cell viability [3] [%] | cell viability [4] [%] | cell viability [5] [%] | cell viability [6] [%] | cell viability [7] [%] | cell viability [8] [%] | cell viability [9] [%] | cell viability [10] [%] | cell viability [11] [%] | cell viability [12] [%] | cell viability [13] [%] | cell viability [14] [%] | cell viability [15] [%] | cell viability [16] [%] | cell viability [17] [%] | cell viability [18] [%] | cell viability [19] [%] | cell viability [20] [%] | cell viability [21] [%] | cell viability [22] [%] | cell viability [23] [%] | cell viability [24] [%] | cell viability [25] [%] | cell viability [26] [%] | cell viability [27] [%] | cell viability [28] [%] | cell viability [29] [%] | cell viability [30] [%] | cell viability [31] [%] | cell viability [32] [%] | cell viability [33] [%] |
| --- | --- | --- | --- | --- | --- | --- | --- | --- | --- | --- | --- | --- | --- | --- | --- | --- | --- | --- | --- | --- | --- | --- | --- | --- | --- | --- | --- | --- | --- | --- | --- | --- | --- |
| COC(=O)C/1=C(C)/N/C(=C(\C1C2=CC(=CC=C2)[N+]([O-])=O)C(=O)OCCCN3CCC(CC3)(C4=CC=CC=C4)C5=CC=CC=C5)C (stereo not given) | 109 | 101 | 104 | 101 | 106 | 101 | 96.1 | 107 | 97.3 | 92.6 | 95 | 107 | 103 | 107 | 81.4 | 95.7 | 95.3 | 98.4 | 89.6 | 89.6 | 92.4 | 93 | 103 | 102 | 99.3 | 88.3 | 98.8 | 95 | 91.4 | 94.9 | 94 | 94.4 | 94.6 |
| C1CN\2C[C@@H](\N=C2S1)C3=CC=CC=C3 | 94.4 | 105 | 99.8 | 104 | 108 | 106 | 107 | 108 | 103 | 108 | 111 | 96.3 | 105 | 96 | 93.4 | 98.7 | – | 102 | 106 | 99.8 | 103 | 105 | 87 | 93.9 | 90.1 | 94.4 | 101 | 102 | 92.7 | 98.3 | 101 | 96.8 | 90.8 |
| Cc1ccc(-c2cc(C(F)(F)F)nn2-c2ccc([S+](N)(=O)[O-])cc2)cc1 | 86.8 | 125 | 118 | 118 | 120 | 110 | 128 | 117 | 115 | 112 | 105 | – | – | – | – | – | – | – | – | – | – | – | 111 | 119 | 122 | 113 | 115 | 123 | 123 | 122 | 121 | 105 | 102 |
| CN(C)[C@@H](CCOc1cccc2ccccc12)c1ccccc1 | 112 | 111 | 113 | 115 | 115 | 112 | 109 | 104 | 101 | 104 | 88.5 | 116 | 118 | 131 | 122 | 113 | 116 | 115 | 101 | 92.2 | 110 | 73.1 | 111 | 102 | 114 | 110 | 115 | 105 | 111 | 108 | 98.2 | 106 | 67.1 |
| C[C@H](Cc1ccc(O)c(O)c1)[C@@H](C)Cc1ccc(O)c(O)c1 | 115 | 114 | 120 | 122 | 118 | 116 | 117 | 116 | 114 | 87.5 | 18.1 | 125 | 130 | 123 | 128 | 130 | 126 | 118 | 125 | 115 | 75.9 | 16.3 | 124 | 121 | 119 | 118 | 124 | 120 | 109 | 114 | 115 | 70.9 | 20.6 |
| Cc1ccc(/C=N/NC(=O)c2ccccc2Oc2ccccc2)o1 | 95.5 | 107 | 91.4 | 96.5 | 100 | 98.3 | 94.6 | 94.9 | 89.7 | 89.7 | 79.4 | 94 | 99 | 90.6 | 88.5 | 91.3 | 90.8 | 91.6 | 92.2 | 95.1 | 85.8 | 63.9 | 85.2 | 82.6 | 87.7 | 89.4 | 90.3 | 90.3 | 88.8 | 82.4 | 82.3 | 86.4 | 78.3 |
| CC[C@@H]1C(=O)N(C)c2cnc(Nc3ccc(C(=O)NC4CCN(C)CC4)cc3OC)nc2N1C1CCCC1 | 116 | 123 | 112 | 84.8 | 13.1 | 13.3 | 13.4 | 16 | 16.5 | 11.4 | 4.01 | 126 | 123 | 116 | 107 | 15.6 | 15.3 | 17.5 | 15.4 | 15 | 12.9 | 4.84 | 116 | 124 | 121 | 114 | 19.4 | 18.7 | 19.7 | 20.8 | 21.2 | 17.8 | 4.69 |
| NC\1=N\C(=O)N(\C=C1F)[C@H]2C[C@H](O)[C@@H](CO)O2 | 118 | 127 | 104 | 101 | 90.6 | 65.2 | 43.7 | 45.4 | 37 | 27.9 | 36.9 | – | – | – | – | – | – | – | – | – | – | – | – | – | – | – | – | – | – | – | – | – | – |
